The text below walks through data of PubChem BioAssay (NCI).

Among the test systems are 786-0 renal; COLO 205 colon; K-562 leukemia; LOX IMVI melanoma; PC-3 prostate; SK-MEL-28 melanoma; SN12C renal; CCRF-CEM leukemia; NCI-H23 lung.
Assay in all cases: NCI tumour cell line growth inhibition, 48 h

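Step 1: Grow cells in 96-well plates. Step 2: Expose to compound for 48 hours at 5 concentrations. Step 3: Interpolate endpoints linearly; if unreached, use highest concentration. GI50 is the concentration that inhibits growth by half. TGI: total growth inhibition.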

With `COc1cc2c(cc1OC)-c1ncc3c(OC)ccc(OC)c3c1C2`, the GI50 in the assay with 786-0 renal is 49.2 µM; with COLO 205 colon, 42.7 µM; in the assay on K-562 leukemia, 12.3 µM; with LOX IMVI melanoma, 16.7 µM; in the assay with PC-3 prostate it was 26.5 µM; in the assay on SK-MEL-28 melanoma, over 100 µM. For the same compound, the GI50 in the assay on SN12C renal was 14.8 µM. Besides, the TGI is over 100 µM in the assay with 786-0 renal; over 100 µM in the assay on COLO 205 colon; 82 µM in the assay on K-562 leukemia; over 100 µM in the assay on LOX IMVI melanoma; over 100 µM in the assay on PC-3 prostate; over 100 µM in the assay with SK-MEL-28 melanoma. In the assay on SN12C renal, this compound came in with a TGI of 58 µM.
Turning to `C/C(CC(=O)NCCc1ccccc1)=N\NS(=O)(=O)c1ccc(C)cc1`, the TGI with 786-0 renal, in the assay with CCRF-CEM leukemia, in the assay on COLO 205 colon, in the assay on K-562 leukemia, with LOX IMVI melanoma and with NCI-H23 lung was over 100 µM in each case. In addition, the TGI in the assay on SK-MEL-28 melanoma was over 100 µM.
On to `C=CCn1c(=S)sc2c(C(=O)OCC)c3c(C)cc(C)cn3c2c1=O`, for which the TGI with 786-0 renal, with CCRF-CEM leukemia, in the assay with COLO 205 colon, in the assay with K-562 leukemia, in the assay on LOX IMVI melanoma and with NCI-H23 lung was over 100 µM throughout. Moreover, the TGI in the assay on SK-MEL-28 melanoma and in the assay with SN12C renal was over 100 µM throughout.
Consider `C/C(CC(=O)Nc1cccc(Cl)c1C)=N\NC(N)=S`, for which the TGI in the assay with 786-0 renal, in the assay with CCRF-CEM leukemia, with COLO 205 colon, with K-562 leukemia, in the assay on LOX IMVI melanoma and with NCI-H23 lung was over 100 µM throughout. The TGI with SK-MEL-28 melanoma was over 100 µM.
Turning to `ClC(Cl)=C(Cl)C1(Cl)CC1COCc1ccccc1` (stereo not given), the TGI with 786-0 renal was over 100 µM; with CCRF-CEM leukemia it was 49 µM; in the assay on COLO 205 colon it was 61.1 µM; in the assay with K-562 leukemia, over 100 µM; in the assay on LOX IMVI melanoma, 54.8 µM; with NCI-H23 lung it was over 100 µM. Besides, the TGI in the assay with SK-MEL-28 melanoma and in the assay with SN12C renal was over 100 µM throughout.
For the compound `C[N+]1=c2c3cccc4cccc(c(=O)n2CC1)c43`, the TGI in the assay on 786-0 renal is over 100 µM; in the assay on CCRF-CEM leukemia, 42.3 µM; in the assay with COLO 205 colon, 24.6 µM; in the assay on K-562 leukemia, 47.7 µM; with LOX IMVI melanoma it was 17.6 µM; with NCI-H23 lung, 32.3 µM. For the same compound, the TGI with SK-MEL-28 melanoma is 30.1 µM; with SN12C renal it was 68.8 µM.
As to `COc1cc2c(cc1OC)C(C(=O)O)C(c1ccccc1)N(C)C2=O` (stereo not given), the TGI with 786-0 renal, with CCRF-CEM leukemia, in the assay on COLO 205 colon, in the assay on K-562 leukemia, in the assay on NCI-H23 lung and with SK-MEL-28 melanoma was over 100 µM throughout. This compound registered a TGI in the assay on SN12C renal of over 100 µM.
In the case of `C#CC1(O)CCC2C3CCc4cc(Oc5nc(F)nc(-c6c7ccccc7c7n6CCS7)n5)ccc4C3CC[C@@]21C` (stereo not given in full), the TGI is over 100 µM in the assay on 786-0 renal; 80.1 µM with CCRF-CEM leukemia; 70 µM in the assay with COLO 205 colon; over 100 µM in the assay on K-562 leukemia; 42.7 µM with NCI-H23 lung; 57.9 µM with SK-MEL-28 melanoma.
As for `CC(C)/C=C1\CCC(CN2CCOCC2)C1=O` (stereo not given), the TGI in the assay with 786-0 renal turned out to be 8.9 µM; in the assay with CCRF-CEM leukemia it was 9.51 µM; in the assay on COLO 205 colon, 22.3 µM; in the assay on K-562 leukemia it was 9.06 µM; in the assay with LOX IMVI melanoma, 53.6 µM; in the assay on NCI-H23 lung, 33.9 µM. Also, the TGI came out at 32.2 µM with SK-MEL-28 melanoma and 36.5 µM in the assay with SN12C renal.
For the compound `[N-]=[N+]=NC(c1cn(C2CC(O)C(CO)O2)c(=O)[nH]c1=O)C(Cl)Br` (stereo not given), the TGI in the assay with 786-0 renal, with CCRF-CEM leukemia, in the assay with COLO 205 colon, in the assay with K-562 leukemia, with LOX IMVI melanoma and in the assay on NCI-H23 lung was over 100 µM each time. Besides, the TGI with SK-MEL-28 melanoma and in the assay with SN12C renal was over 100 µM throughout.
Take `Cc1cc(N(CCC#N)S(=O)(=O)c2ccccc2)ccc1/C=C1\N=C(c2ccc(Cl)cc2)OC1=O`: the TGI in the assay with 786-0 renal, with CCRF-CEM leukemia, in the assay on COLO 205 colon, in the assay on K-562 leukemia, with LOX IMVI melanoma and in the assay with NCI-H23 lung was over 100 µM in each case. For the same compound, the TGI with SK-MEL-28 melanoma and in the assay with SN12C renal was over 100 µM throughout.
Take `C=C1CC(CC)(CCN2C(=O)c3ccccc3C2=O)OC1=O` (stereo not given): the TGI was 24.2 µM in the assay with 786-0 renal; over 100 µM in the assay on CCRF-CEM leukemia; 30.3 µM in the assay with COLO 205 colon; over 100 µM in the assay with K-562 leukemia; 29.6 µM in the assay with LOX IMVI melanoma; 29.9 µM with NCI-H23 lung. This compound gave a TGI with SN12C renal of 45.5 µM.
In the case of `CC(C)N(C(=O)c1cccc(C(=O)N(C(C)C)C(C)C)c1)C(C)C`, the TGI in the assay on 786-0 renal, in the assay with CCRF-CEM leukemia, with COLO 205 colon, in the assay on K-562 leukemia, in the assay with LOX IMVI melanoma and with NCI-H23 lung was over 100 µM each time. Also, the TGI with SK-MEL-28 melanoma and in the assay on SN12C renal was over 100 µM throughout.
As to `C=CC(=O)N1C/C(=C\c2ccc(Cl)c(Cl)c2)C(=O)/C(=C/c2ccc(Cl)c(Cl)c2)C1`, the TGI with 786-0 renal was determined as 0.194 µM; with CCRF-CEM leukemia, 0.082 µM; in the assay with COLO 205 colon, 0.243 µM; in the assay on K-562 leukemia, 0.28 µM; in the assay on LOX IMVI melanoma, 0.842 µM; in the assay with NCI-H23 lung it was 0.438 µM. Further, the results for the TGI in the assay with SK-MEL-28 melanoma and in the assay with SN12C renal were 1.5 µM and 0.302 µM, respectively.
For `COC1C(OC(=O)c2ccc(C)[nH]2)C(O)C(Oc2ccc3c(O)c(NC(=O)c4c[nH]c(C(=O)Nc5c(O)c6ccc(OC7OC(C)(C)C(OC)C(OC(=O)c8ccc(C)[nH]8)C7O)c(C)c6oc5=O)c4C)c(=O)oc3c2C)OC1(C)C` (stereo not given), the TGI was 5.42 µM with 786-0 renal; 10.6 µM in the assay with CCRF-CEM leukemia; 4.38 µM in the assay with COLO 205 colon; over 100 µM in the assay with K-562 leukemia; 9.4 µM with LOX IMVI melanoma; 3.84 µM with NCI-H23 lung. The TGI with SK-MEL-28 melanoma came to 2.25 µM; in the assay with SN12C renal, 7.16 µM.
